Source: paper PMC9905048 (Bioorganic & Medicinal Chemistry Letters, 2023)
Like-named read-outs stand apart in the source and are kept apart here.

Key:
[1] = system: SARS-CoV-2 (hCoV-19/Korea/KCDC-06/2020); assay: Cell-based antiviral assay against SARS-CoV-2 in Vero cells; details: ratio of EC50, in vitro
Flu B/Lee/40 (Lee) = assay: Cell-based antiviral assay against Flu B in MDCK cells; set-up: species or system influenza B virus
[2] = system: DENV-2 replicon BHK-21 (DENV2-BHK) cells; format: cell-based
[3] = system: cells of the SARS-CoV-2, Flu A/B and DENV-2 assays
[4] = in vitro, summary for SARS-CoV-2, Flu A/B and DENV-2 assays

Q: What does the source list for `CC(C)C(=O)ONc1ccn([C@@H]2O[C@H](CO)[C@@H](O)[C@H]2O)c(=O)n1` [8a, β-D-N^4-O-isobutyrylcytidine]?
A: potency against SARS-CoV-2 compared to NHC (1) [1]: > 5 fold; potency (EC50) against Flu B compared with T-705 and amantadine (AMT) (Flu B/Lee/40 (Lee)): about 2 fold; potency (EC50) against DENV-2 compared with T-705 and amantadine (AMT) [2]: about 2 fold

Q: How did the cell cytotoxicity [3, 4] turn out when `CC(C)(C)OC(=O)NNc1ccn([C@@H]2O[C@H](CO)[C@@H](O)[C@H]2O)c(=O)n1` [8b, C4-Boc-hyrazinyl cytidine] was run?
A: > 100 µM

Q: Which cell cytotoxicity ([3]; African green monkey (Vero), hamster (BHK-21), dog (MDCK)) does the source give for `Cl.NNc1ccn([C@@H]2O[C@H](CO)[C@@H](O)[C@H]2O)c(=O)n1` [compound 9, N ^4-aminocytidine] here?
A: > 100 µM

Q: For C4-2‑hydroxylethyl cytidine [8c], which cell cytotoxicity [3, 4] is on record?
A: > 100 µM
